CC(C)(C)c1ccc2c(c1)C(=O)c1ccccc1C2=O
solubility (mole fraction)
Details	303.15 K	308.15 K	313.15 K	318.15 K	323.15 K	333.15 K
in 2,6-dimethyl-4-heptanol	0.0245	0.0351	0.0461	0.0635	0.0998	0.21
in mesitylene	0.282	0.317	0.345	0.386	0.443	0.604
in trioctyl phosphate	0.169	0.185	0.209	0.254	0.296	0.39
